From ChEMBL document CHEMBL5465560, “Selectivity Literature for EUbOPEN Chemogenomic Library” (2024)
Residue numbers refer to the chain shown, from its start. Values belong to the molecule of their own block, whether it stands above or below them.

What was measured:
[1] = biological target: Tyrosine-protein kinase JAK1 (Homo sapiens, UniProt P23458); experiment: Selectivity interaction (KinomeScan (DiscoverX)) EUB0001868a JAK1; conditions: at 1 µM
[2] = biological target: Protein kinase C alpha type (Homo sapiens, UniProt P17252); experiment: Selectivity interaction (Kinase panel (Invitrogen)) EUB0000639a PRKCA; conditions: at 200 nM
[3] = biological target: T1, Dual specificity protein kinase TTK (Homo sapiens) (UniProt P33981); conditions: at 10 µM
T1 sequence (whole entry): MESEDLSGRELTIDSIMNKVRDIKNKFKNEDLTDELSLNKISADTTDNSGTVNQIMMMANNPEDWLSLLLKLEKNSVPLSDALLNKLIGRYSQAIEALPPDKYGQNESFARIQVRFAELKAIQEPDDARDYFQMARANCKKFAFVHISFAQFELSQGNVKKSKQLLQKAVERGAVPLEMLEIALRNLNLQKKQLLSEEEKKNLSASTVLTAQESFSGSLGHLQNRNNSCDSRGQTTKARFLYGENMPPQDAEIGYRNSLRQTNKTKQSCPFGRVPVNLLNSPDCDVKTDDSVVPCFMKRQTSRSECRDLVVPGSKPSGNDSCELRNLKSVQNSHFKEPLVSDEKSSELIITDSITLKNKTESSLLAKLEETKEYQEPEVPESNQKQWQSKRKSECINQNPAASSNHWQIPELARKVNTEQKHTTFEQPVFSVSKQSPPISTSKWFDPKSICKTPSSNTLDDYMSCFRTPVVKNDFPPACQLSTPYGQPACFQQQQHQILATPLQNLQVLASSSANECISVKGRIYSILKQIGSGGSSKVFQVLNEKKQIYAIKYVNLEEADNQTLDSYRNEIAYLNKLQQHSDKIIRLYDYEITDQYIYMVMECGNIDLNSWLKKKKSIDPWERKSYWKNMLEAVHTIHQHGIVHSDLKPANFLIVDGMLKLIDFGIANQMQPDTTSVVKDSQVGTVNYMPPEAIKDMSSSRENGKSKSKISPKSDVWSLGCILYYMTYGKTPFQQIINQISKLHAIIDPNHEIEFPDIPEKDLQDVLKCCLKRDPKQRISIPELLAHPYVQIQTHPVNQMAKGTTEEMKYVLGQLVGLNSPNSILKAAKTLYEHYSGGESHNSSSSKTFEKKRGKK

[4] = biological target: Transcription intermediary factor 1-beta (Homo sapiens) (UniProt Q13263); experiment: Selectivity interaction (Human bromodomain panel (DSF assay)) EUB0000233b TRIM28
Chain of Transcription intermediary factor 1-beta (Homo sapiens) (Q13263 whole entry): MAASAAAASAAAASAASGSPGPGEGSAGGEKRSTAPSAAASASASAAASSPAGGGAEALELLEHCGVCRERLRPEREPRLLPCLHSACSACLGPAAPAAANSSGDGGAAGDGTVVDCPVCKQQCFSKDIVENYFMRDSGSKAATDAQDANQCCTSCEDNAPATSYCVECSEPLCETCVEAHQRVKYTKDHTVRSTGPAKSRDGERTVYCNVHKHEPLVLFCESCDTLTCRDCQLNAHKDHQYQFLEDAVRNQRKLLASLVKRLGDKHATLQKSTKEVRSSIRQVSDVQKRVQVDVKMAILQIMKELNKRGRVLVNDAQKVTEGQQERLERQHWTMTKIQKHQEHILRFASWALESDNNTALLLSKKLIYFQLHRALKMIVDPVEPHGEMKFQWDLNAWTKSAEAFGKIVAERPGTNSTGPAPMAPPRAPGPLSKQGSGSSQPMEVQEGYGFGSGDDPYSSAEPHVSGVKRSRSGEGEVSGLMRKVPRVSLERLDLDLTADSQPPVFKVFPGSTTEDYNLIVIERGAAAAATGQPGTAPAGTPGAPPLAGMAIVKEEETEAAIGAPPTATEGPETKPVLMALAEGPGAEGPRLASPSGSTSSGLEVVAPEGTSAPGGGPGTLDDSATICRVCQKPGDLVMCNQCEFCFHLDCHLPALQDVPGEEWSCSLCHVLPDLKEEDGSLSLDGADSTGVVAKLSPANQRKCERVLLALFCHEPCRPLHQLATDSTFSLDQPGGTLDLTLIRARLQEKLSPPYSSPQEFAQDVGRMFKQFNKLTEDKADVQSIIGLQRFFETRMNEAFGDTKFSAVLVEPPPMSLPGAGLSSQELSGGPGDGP

[5] = test system: T2, Receptor-type tyrosine-protein kinase FLT3 (Homo sapiens), P36888 [D835Y]; experiment: (§1) Selectivity interaction (KinomeScan (DiscoverX)) EUB0000045b FLT3
T2 sequence (whole entry): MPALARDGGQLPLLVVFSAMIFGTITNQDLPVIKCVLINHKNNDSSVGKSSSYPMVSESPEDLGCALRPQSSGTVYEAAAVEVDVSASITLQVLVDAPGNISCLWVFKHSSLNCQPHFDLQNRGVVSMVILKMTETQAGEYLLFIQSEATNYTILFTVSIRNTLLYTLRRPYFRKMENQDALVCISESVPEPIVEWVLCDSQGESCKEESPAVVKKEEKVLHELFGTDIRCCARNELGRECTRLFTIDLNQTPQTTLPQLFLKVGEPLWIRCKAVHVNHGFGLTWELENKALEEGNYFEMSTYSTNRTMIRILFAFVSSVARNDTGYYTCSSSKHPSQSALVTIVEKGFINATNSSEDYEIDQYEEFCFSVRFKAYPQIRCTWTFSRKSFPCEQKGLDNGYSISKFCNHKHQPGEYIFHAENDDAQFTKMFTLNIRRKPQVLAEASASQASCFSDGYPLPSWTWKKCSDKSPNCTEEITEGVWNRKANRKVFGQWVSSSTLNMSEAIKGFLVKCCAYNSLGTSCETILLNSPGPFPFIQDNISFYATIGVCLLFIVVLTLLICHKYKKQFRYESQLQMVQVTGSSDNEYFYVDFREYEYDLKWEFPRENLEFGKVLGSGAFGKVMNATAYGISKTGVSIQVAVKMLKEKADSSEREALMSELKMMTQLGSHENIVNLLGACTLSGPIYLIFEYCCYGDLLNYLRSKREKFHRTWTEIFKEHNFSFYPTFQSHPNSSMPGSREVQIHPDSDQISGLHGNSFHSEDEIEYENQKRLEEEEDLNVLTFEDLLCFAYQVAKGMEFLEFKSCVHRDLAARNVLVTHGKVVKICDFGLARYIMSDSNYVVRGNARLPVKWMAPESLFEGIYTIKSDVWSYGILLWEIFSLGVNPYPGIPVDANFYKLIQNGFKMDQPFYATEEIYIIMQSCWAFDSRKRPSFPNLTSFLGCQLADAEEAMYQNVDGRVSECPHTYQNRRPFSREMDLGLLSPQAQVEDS

[6] = test system: T3, Receptor-type tyrosine-protein kinase FLT3 (Homo sapiens), P36888 [D835H]; experiment: as §1
T3 sequence (whole entry): T2 sequence (whole entry) with Y835H

Chain of Tyrosine-protein kinase JAK1 (P23458 whole entry): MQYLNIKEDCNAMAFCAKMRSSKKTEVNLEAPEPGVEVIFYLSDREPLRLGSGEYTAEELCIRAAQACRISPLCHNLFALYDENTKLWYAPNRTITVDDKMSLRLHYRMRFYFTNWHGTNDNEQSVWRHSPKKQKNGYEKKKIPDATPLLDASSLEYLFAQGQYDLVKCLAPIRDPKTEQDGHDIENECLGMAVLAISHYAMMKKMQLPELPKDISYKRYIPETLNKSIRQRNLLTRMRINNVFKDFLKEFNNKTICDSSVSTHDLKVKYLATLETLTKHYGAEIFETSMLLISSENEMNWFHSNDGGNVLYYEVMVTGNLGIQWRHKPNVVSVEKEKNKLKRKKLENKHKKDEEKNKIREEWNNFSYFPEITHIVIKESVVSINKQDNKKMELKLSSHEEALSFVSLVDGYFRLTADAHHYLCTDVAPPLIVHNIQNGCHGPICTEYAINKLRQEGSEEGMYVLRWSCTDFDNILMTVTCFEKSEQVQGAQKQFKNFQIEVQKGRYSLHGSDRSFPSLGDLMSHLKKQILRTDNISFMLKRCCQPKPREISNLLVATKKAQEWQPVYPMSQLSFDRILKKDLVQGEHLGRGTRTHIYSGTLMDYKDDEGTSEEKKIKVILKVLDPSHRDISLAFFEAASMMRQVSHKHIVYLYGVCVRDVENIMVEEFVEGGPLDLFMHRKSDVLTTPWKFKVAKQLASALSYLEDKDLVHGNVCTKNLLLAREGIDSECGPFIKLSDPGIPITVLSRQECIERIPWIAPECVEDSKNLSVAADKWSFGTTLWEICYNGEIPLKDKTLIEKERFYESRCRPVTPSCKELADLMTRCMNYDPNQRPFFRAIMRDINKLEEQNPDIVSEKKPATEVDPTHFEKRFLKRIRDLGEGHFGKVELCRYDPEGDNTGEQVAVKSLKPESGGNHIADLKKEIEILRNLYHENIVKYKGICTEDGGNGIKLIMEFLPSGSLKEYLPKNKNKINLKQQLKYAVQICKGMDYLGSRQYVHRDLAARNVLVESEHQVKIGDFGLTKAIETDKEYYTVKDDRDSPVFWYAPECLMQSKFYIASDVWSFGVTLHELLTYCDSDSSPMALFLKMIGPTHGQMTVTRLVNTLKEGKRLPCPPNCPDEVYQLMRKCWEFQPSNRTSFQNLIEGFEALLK

% of inhibition [2]: 6.64%
SMILES: CC[C@@H]1[C@H](F)C(=O)N[C@@H]1COc1nccc2cc(C(N)=O)c(OC)cc12 [ZIMLOVISERTIB]

% of control [3]: 100%
SMILES: CCN(CC)CCCCNc1ncc2cc(-c3cc(OC)cc(OC)c3)c(NC(=O)NC(C)(C)C)nc2n1

The remaining lines, values behind:

SMILES: Cc1cc(-c2ccnc(Nc3cnn(C)c3)n2)ccc1CNC(=O)N1CC(OC(C)C)C1
% of control [1]: 29%

SMILES: CN(C)CCCOc1ccc(-c2cc(NCCCn3cccn3)nc(S(C)(=O)=O)n2)cc1
dTM [4]: < 2 K

SMILES: C=CC(=O)Nc1cc(-n2c(=O)ccc3cnc4ccc(-c5ccc(NS(C)(=O)=O)cc5)cc4c32)ccc1C
% of control ([5]; at 1 µM): 100% | % of control ([5]; at 10 µM): 100% | % of control ([6]; at 1 µM): 89% | % of control ([6]; at 10 µM): 100%
